Reference: the supplement of paper PMC10307832

What was measured:
Experiment in all cases: relative viability (nuclei count vs DMSO), 5 days (fraction); higher = more cells survive
Omipalisib + Alpelisib = compound: COc1ncc(-c2ccc3nccc(-c4ccnnc4)c3c2)cc1NS(=O)(=O)c1ccc(F)cc1F [Omipalisib] + Cc1nc(NC(=O)N2CCC[C@H]2C(N)=O)sc1-c1ccnc(C(C)(C)C(F)(F)F)c1 [Alpelisib] (partner 2 µM)
Summary of the method: (§1)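 Each reported value is a median over duplicate plates. It expresses relative viability: treated-well nuclei count divided by vehicle-well nuclei count. Lung cancer cell lines in 1536-well plates were dosed by pin tool a day after seeding, alone with one drug or with a fixed anchor-drug dose plus five library-drug doses (not always all listed) in √10 steps, and nuclei were counted after 5 days.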

Omipalisib + Pictilisib = compound: COc1ncc(-c2ccc3nccc(-c4ccnnc4)c3c2)cc1NS(=O)(=O)c1ccc(F)cc1F [Omipalisib] + CS(=O)(=O)N1CCN(Cc2cc3nc(-c4cccc5[nH]ncc45)nc(N4CCOCC4)c3s2)CC1 [Pictilisib] (partner 1 µM)
Summary of the method: as §1

Omipalisib + Linsitinib = compound: COc1ncc(-c2ccc3nccc(-c4ccnnc4)c3c2)cc1NS(=O)(=O)c1ccc(F)cc1F [Omipalisib] + C[C@]1(O)C[C@@H](c2nc(-c3ccc4ccc(-c5ccccc5)nc4c3)c3c(N)nccn32)C1 [Linsitinib] (partner 1 µM)
Summary of the method: as §1

Omipalisib + Crizotinib = compound: COc1ncc(-c2ccc3nccc(-c4ccnnc4)c3c2)cc1NS(=O)(=O)c1ccc(F)cc1F [Omipalisib] + C[C@@H](Oc1cc(-c2cnn(C3CCNCC3)c2)cnc1N)c1c(Cl)ccc(F)c1Cl [Crizotinib] (partner 1 µM)
Summary of the method: as §1

Omipalisib + Foretinib = compound: COc1ncc(-c2ccc3nccc(-c4ccnnc4)c3c2)cc1NS(=O)(=O)c1ccc(F)cc1F [Omipalisib] + COc1cc2c(Oc3ccc(NC(=O)C4(C(=O)Nc5ccc(F)cc5)CC4)cc3F)ccnc2cc1OCCCN1CCOCC1 [Foretinib] (partner 0.25 µM)
Summary of the method: as §1

Omipalisib + Olaparib = compound: COc1ncc(-c2ccc3nccc(-c4ccnnc4)c3c2)cc1NS(=O)(=O)c1ccc(F)cc1F [Omipalisib] + O=C(c1cc(Cc2n[nH]c(=O)c3ccccc23)ccc1F)N1CCN(C(=O)C2CC2)CC1 [Olaparib] (partner 8 µM)
Summary of the method: as §1

Omipalisib + Navitoclax = compound: COc1ncc(-c2ccc3nccc(-c4ccnnc4)c3c2)cc1NS(=O)(=O)c1ccc(F)cc1F [Omipalisib] + CC1(C)CCC(c2ccc(Cl)cc2)=C(CN2CCN(c3ccc(C(=O)NS(=O)(=O)c4ccc(N[C@H](CCN5CCOCC5)CSc5ccccc5)c(S(=O)(=O)C(F)(F)F)c4)cc3)CC2)C1 [Navitoclax] (partner 0.5 µM)
Summary of the method: as §1

Omipalisib + Bortezomib = compound: COc1ncc(-c2ccc3nccc(-c4ccnnc4)c3c2)cc1NS(=O)(=O)c1ccc(F)cc1F [Omipalisib] + CC(C)C[C@H](NC(=O)[C@H](Cc1ccccc1)NC(=O)c1cnccn1)B(O)O [Bortezomib] (partner 0.002 µM)
Summary of the method: as §1

Omipalisib + Lapatinib = compound: COc1ncc(-c2ccc3nccc(-c4ccnnc4)c3c2)cc1NS(=O)(=O)c1ccc(F)cc1F [Omipalisib] + CS(=O)(=O)CCNCc1ccc(-c2ccc3ncnc(Nc4ccc(OCc5cccc(F)c5)c(Cl)c4)c3c2)o1 [Lapatinib] (partner 2 µM)
Summary of the method: as §1

Omipalisib = compound: COc1ncc(-c2ccc3nccc(-c4ccnnc4)c3c2)cc1NS(=O)(=O)c1ccc(F)cc1F [Omipalisib]
Summary of the method: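 Viability here means nuclei in treated wells divided by nuclei in vehicle wells, reported as the median across plates. Only plates with control CV below 25% and at least one doubling passed. Lung cancer cell lines in 1536-well plates were exposed to five √10-spaced library-drug doses for 5 days and counted from 4× Hoechst images in MetaXpress.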

Omipalisib + Luminespib = compound: COc1ncc(-c2ccc3nccc(-c4ccnnc4)c3c2)cc1NS(=O)(=O)c1ccc(F)cc1F [Omipalisib] + CCNC(=O)c1noc(-c2cc(C(C)C)c(O)cc2O)c1-c1ccc(CN2CCOCC2)cc1 [Luminespib] (partner 0.01 µM)
Summary of the method: as §1

Omipalisib + Dasatinib = compound: COc1ncc(-c2ccc3nccc(-c4ccnnc4)c3c2)cc1NS(=O)(=O)c1ccc(F)cc1F [Omipalisib] + Cc1nc(Nc2ncc(C(=O)Nc3c(C)cccc3Cl)s2)cc(N2CCN(CCO)CC2)n1 [Dasatinib] (partner 0.075 µM)
Summary of the method: as §1

Omipalisib + Tozasertib = compound: COc1ncc(-c2ccc3nccc(-c4ccnnc4)c3c2)cc1NS(=O)(=O)c1ccc(F)cc1F [Omipalisib] + Cc1cc(Nc2cc(N3CCN(C)CC3)nc(Sc3ccc(NC(=O)C4CC4)cc3)n2)n[nH]1 [Tozasertib] (partner 0.1 µM)
Summary of the method: as §1

Omipalisib + OSI-027 = compound: COc1ncc(-c2ccc3nccc(-c4ccnnc4)c3c2)cc1NS(=O)(=O)c1ccc(F)cc1F [Omipalisib] + COc1cccc2cc(-c3nc([C@H]4CC[C@H](C(=O)O)CC4)n4ncnc(N)c34)[nH]c12 [OSI-027] (partner 0.5 µM)
Summary of the method: as §1

Omipalisib + Phenformin = compound: COc1ncc(-c2ccc3nccc(-c4ccnnc4)c3c2)cc1NS(=O)(=O)c1ccc(F)cc1F [Omipalisib] + N=C(N)NC(=N)NCCc1ccccc1 [Phenformin] (partner 250 µM)
Summary of the method: as §1

Row | Cell Line | relative viability (Omipalisib + Alpelisib; first compound 0.0003 µM) | relative viability (Omipalisib + Alpelisib; first compound 0.003 µM) | relative viability (Omipalisib + Alpelisib; first compound 0.03 µM) | relative viability (Omipalisib + Pictilisib; first compound 0.0003 µM) | relative viability (Omipalisib + Pictilisib; first compound 0.003 µM) | relative viability (Omipalisib + Pictilisib; first compound 0.03 µM) | relative viability (Omipalisib + Linsitinib; first compound 0.0003 µM) | relative viability (Omipalisib + Linsitinib; first compound 0.003 µM) | relative viability (Omipalisib + Linsitinib; first compound 0.03 µM) | relative viability (Omipalisib + Crizotinib; first compound 0.0003 µM) | relative viability (Omipalisib + Crizotinib; first compound 0.003 µM) | relative viability (Omipalisib + Crizotinib; first compound 0.03 µM) | relative viability (Omipalisib + Foretinib; first compound 0.0003 µM) | relative viability (Omipalisib + Foretinib; first compound 0.003 µM) | relative viability (Omipalisib + Foretinib; first compound 0.03 µM) | relative viability (Omipalisib + Olaparib; first compound 0.0003 µM) | relative viability (Omipalisib + Olaparib; first compound 0.003 µM) | relative viability (Omipalisib; 0.0003 µM) | relative viability (Omipalisib; 0.003 µM) | relative viability (Omipalisib; 0.03 µM) | also measured
1 | NCI-H1299 | 1.12 | 1.13 | 1.06 | 0.778 | 0.612 | 0.624 | 0.95 | 1.01 | 0.909 | 0.986 | 1.03 | 0.967 | 1.13 | 1.17 | 1.12 | 1.05 | 1.01 | 1.06 | 1.1 | 1.02 | relative viability (Omipalisib + Olaparib; first compound 0.03 µM): 0.902; relative viability (Omipalisib + Navitoclax; first compound 0.0003 µM): 1.09; relative viability (Omipalisib + Navitoclax; first compound 0.003 µM): 1.05; relative viability (Omipalisib + Navitoclax; first compound 0.03 µM): 1.05; relative viability (Omipalisib + Bortezomib; first compound 0.0003 µM): 1.03; relative viability (Omipalisib + Bortezomib; first compound 0.003 µM): 1.08; relative viability (Omipalisib + Bortezomib; first compound 0.03 µM): 1.12; relative viability (Omipalisib + Lapatinib; first compound 0.0003 µM): 1.01; relative viability (Omipalisib + Lapatinib; first compound 0.003 µM): 0.994; relative viability (Omipalisib + Lapatinib; first compound 0.03 µM): 1.02
2 | NCI-H1623 |  |  |  |  |  |  |  |  |  |  |  |  | 0.76 | 0.727 | 0.316 |  |  | 0.855 | 0.553 | 0.359 | relative viability (Omipalisib + Luminespib; first compound 0.0003 µM): 0.399; relative viability (Omipalisib + Luminespib; first compound 0.003 µM): 0.287; relative viability (Omipalisib + Luminespib; first compound 0.03 µM): 0.292; relative viability (Omipalisib + Dasatinib; first compound 0.0003 µM): 0.488; relative viability (Omipalisib + Dasatinib; first compound 0.003 µM): 0.466; relative viability (Omipalisib + Dasatinib; first compound 0.03 µM): 0.266; relative viability (Omipalisib + Tozasertib; first compound 0.0003 µM): 0.409; relative viability (Omipalisib + Tozasertib; first compound 0.003 µM): 0.354; relative viability (Omipalisib + Tozasertib; first compound 0.03 µM): 0.273; relative viability (Omipalisib + OSI-027; first compound 0.0003 µM): 0.398; relative viability (Omipalisib + OSI-027; first compound 0.003 µM): 0.338; relative viability (Omipalisib + OSI-027; first compound 0.03 µM): 0.294; relative viability (Omipalisib + Phenformin; first compound 0.0003 µM): 0.479; relative viability (Omipalisib + Phenformin; first compound 0.003 µM): 0.607; relative viability (Omipalisib + Phenformin; first compound 0.03 µM): 0.247
3 | Calu-6 | 0.889 | 0.864 | 0.755 | 0.996 | 0.879 | 0.775 | 0.842 | 0.931 | 0.815 | 0.904 | 0.813 | 0.681 | 0.894 | 0.844 | 0.754 | 0.658 | 0.625 | 1.09 | 0.986 | 0.861 | relative viability (Omipalisib + Olaparib; first compound 0.03 µM): 0.542; relative viability (Omipalisib + Navitoclax; first compound 0.0003 µM): 0.882; relative viability (Omipalisib + Navitoclax; first compound 0.003 µM): 0.848; relative viability (Omipalisib + Navitoclax; first compound 0.03 µM): 0.452; relative viability (Omipalisib + Bortezomib; first compound 0.0003 µM): 0.982; relative viability (Omipalisib + Bortezomib; first compound 0.003 µM): 0.951; relative viability (Omipalisib + Bortezomib; first compound 0.03 µM): 0.865; relative viability (Omipalisib + Lapatinib; first compound 0.0003 µM): 1.05; relative viability (Omipalisib + Lapatinib; first compound 0.003 µM): 1; relative viability (Omipalisib + Lapatinib; first compound 0.03 µM): 0.795
